From PubChem BioAssay (NCI)
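Assay format: 96-well plates, 48-hour exposure. GI50 = concentration required for 50% inhibition of growth. The concentration for full growth arrest is given as TGI.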

Tests used:
Test in all cases: inhibition of tumour cell growth, NCI panel, 48 h
786-0 renal = test system: 786-0 renal
A498 renal = test system: A498 renal
A549 NSCLC = test system: A549 NSCLC
ACHN renal = test system: ACHN renal
BT-549 breast = test system: BT-549 breast
CAKI-1 renal = test system: CAKI-1 renal
COLO 205 colon = test system: COLO 205 colon
DU-145 prostate = test system: DU-145 prostate
EKVX NSCLC = test system: EKVX NSCLC
HCC-2998 colon = test system: HCC-2998 colon
HCT-116 colon = test system: HCT-116 colon
HCT-15 colon = test system: HCT-15 colon
HL-60(TB) leukemia = test system: HL-60(TB) leukemia
HOP-62 NSCLC = test system: HOP-62 NSCLC
HOP-92 NSCLC = test system: HOP-92 NSCLC
HS 578T breast = test system: HS 578T breast
HT29 colon = test system: HT29 colon
IGROV1 ovarian = test system: IGROV1 ovarian
K-562 leukemia = test system: K-562 leukemia
KM12 colon = test system: KM12 colon
LOX IMVI melanoma = test system: LOX IMVI melanoma
M14 melanoma = test system: M14 melanoma
MCF7 breast = test system: MCF7 breast
MDA-MB-231 breast = test system: MDA-MB-231 breast
MDA-MB-435 = test system: MDA-MB-435
MOLT-4 leukemia = test system: MOLT-4 leukemia
NCI-H226 lung = test system: NCI-H226 lung
NCI-H23 lung = test system: NCI-H23 lung
NCI-H460 lung = test system: NCI-H460 lung
NCI-H522 lung = test system: NCI-H522 lung
NCI/ADR-RES ovarian = test system: NCI/ADR-RES ovarian
OVCAR-4 ovarian = test system: OVCAR-4 ovarian
OVCAR-5 ovarian = test system: OVCAR-5 ovarian
OVCAR-8 ovarian = test system: OVCAR-8 ovarian
PC-3 prostate = test system: PC-3 prostate
RPMI-8226 leukemia = test system: RPMI-8226 leukemia
RXF 393 renal = test system: RXF 393 renal
SF-268 CNS = test system: SF-268 CNS
SF-295 CNS = test system: SF-295 CNS
SF-539 CNS = test system: SF-539 CNS
SK-MEL-2 melanoma = test system: SK-MEL-2 melanoma
SK-MEL-28 melanoma = test system: SK-MEL-28 melanoma
SK-MEL-5 melanoma = test system: SK-MEL-5 melanoma
SK-OV-3 ovarian = test system: SK-OV-3 ovarian
SN12C renal = test system: SN12C renal
SNB-19 CNS = test system: SNB-19 CNS
SNB-75 CNS = test system: SNB-75 CNS
SR leukemia = test system: SR leukemia
SW-620 colon = test system: SW-620 colon
T-47D breast = test system: T-47D breast
TK-10 renal = test system: TK-10 renal
U251 CNS = test system: U251 CNS
UACC-257 melanoma = test system: UACC-257 melanoma
UACC-62 melanoma = test system: UACC-62 melanoma
UO-31 renal = test system: UO-31 renal
CCRF-CEM leukemia = test system: CCRF-CEM leukemia
MALME-3M melanoma = test system: MALME-3M melanoma
OVCAR-3 ovarian = test system: OVCAR-3 ovarian

Cc1[nH]c2ccccc2c1CCNCc1ccc(/C=C/C(=O)NO)cc1
GI50 (786-0 renal): 27.5 nM | TGI (786-0 renal): 490 nM | GI50 (A498 renal): < 10 nM | TGI (A498 renal): 22 nM | GI50 (A549 NSCLC): 15.8 nM | TGI (A549 NSCLC): 101 nM | GI50 (ACHN renal): 18.3 nM | TGI (ACHN renal): 71.4 nM | GI50 (BT-549 breast): 213 nM | TGI (BT-549 breast): 12300 nM | GI50 (CAKI-1 renal): 19.3 nM | TGI (CAKI-1 renal): 52.4 nM | GI50 (COLO 205 colon): < 10.8 nM | TGI (COLO 205 colon): 21.8 nM | GI50 (DU-145 prostate): < 10 nM | TGI (DU-145 prostate): 53.2 nM | GI50 (EKVX NSCLC): 23 nM | TGI (EKVX NSCLC): 1500 nM | GI50 (HCC-2998 colon): 12.1 nM | TGI (HCC-2998 colon): 35.3 nM | GI50 (HCT-116 colon): < 10 nM | TGI (HCT-116 colon): 14.2 nM | GI50 (HCT-15 colon): 67.6 nM | TGI (HCT-15 colon): 12900 nM | GI50 (HL-60(TB) leukemia): < 10 nM | TGI (HL-60(TB) leukemia): 3160 nM | GI50 (HOP-62 NSCLC): < 12.2 nM | TGI (HOP-62 NSCLC): 69.7 nM | GI50 (HOP-92 NSCLC): < 10 nM | TGI (HOP-92 NSCLC): < 10 nM | GI50 (HS 578T breast): < 10 nM | TGI (HS 578T breast): 55.4 nM | GI50 (HT29 colon): < 10 nM | TGI (HT29 colon): 10600 nM | GI50 (IGROV1 ovarian): 16.8 nM | TGI (IGROV1 ovarian): 72.1 nM | GI50 (K-562 leukemia): < 10 nM | TGI (K-562 leukemia): 83.3 nM | GI50 (KM12 colon): 19.3 nM | TGI (KM12 colon): 112 nM | GI50 (LOX IMVI melanoma): 12.8 nM | TGI (LOX IMVI melanoma): 30 nM | GI50 (M14 melanoma): < 11.6 nM | TGI (M14 melanoma): 111 nM | GI50 (MCF7 breast): < 10 nM | TGI (MCF7 breast): 795 nM | GI50 (MDA-MB-231 breast): 28.4 nM | TGI (MDA-MB-231 breast): 162 nM | GI50 (MDA-MB-435): < 10 nM | TGI (MDA-MB-435): 50.2 nM | GI50 (MOLT-4 leukemia): < 10 nM | GI50 (NCI-H226 lung): 30.5 nM | TGI (NCI-H226 lung): 172 nM | GI50 (NCI-H23 lung): 24.6 nM | TGI (NCI-H23 lung): 150 nM | GI50 (NCI-H460 lung): < 10 nM | TGI (NCI-H460 lung): 838 nM | GI50 (NCI-H522 lung): < 10 nM | TGI (NCI-H522 lung): 32.4 nM | GI50 (NCI/ADR-RES ovarian): 21.1 nM | TGI (NCI/ADR-RES ovarian): 267 nM | GI50 (OVCAR-4 ovarian): 15 nM | TGI (OVCAR-4 ovarian): 58.5 nM | GI50 (OVCAR-5 ovarian): < 10 nM | TGI (OVCAR-5 ovarian): 91.1 nM | GI50 (OVCAR-8 ovarian): < 10 nM | TGI (OVCAR-8 ovarian): 178 nM | GI50 (PC-3 prostate): < 11.4 nM | TGI (PC-3 prostate): 2860 nM | GI50 (RPMI-8226 leukemia): < 12.3 nM | TGI (RPMI-8226 leukemia): 595 nM | GI50 (RXF 393 renal): < 10.4 nM | TGI (RXF 393 renal): 25 nM | GI50 (SF-268 CNS): 15.7 nM | TGI (SF-268 CNS): 60.5 nM | GI50 (SF-295 CNS): 14.6 nM | TGI (SF-295 CNS): 56.3 nM | GI50 (SF-539 CNS): 24.9 nM | TGI (SF-539 CNS): 2110 nM | GI50 (SK-MEL-2 melanoma): < 12 nM | TGI (SK-MEL-2 melanoma): 53.2 nM | GI50 (SK-MEL-28 melanoma): < 11.5 nM | TGI (SK-MEL-28 melanoma): 72.8 nM | GI50 (SK-MEL-5 melanoma): < 11.3 nM | TGI (SK-MEL-5 melanoma): 27.5 nM | GI50 (SK-OV-3 ovarian): 13.4 nM | TGI (SK-OV-3 ovarian): 41.2 nM | GI50 (SN12C renal): 27.2 nM | TGI (SN12C renal): 317 nM | GI50 (SNB-19 CNS): 24.4 nM | TGI (SNB-19 CNS): 323 nM | GI50 (SNB-75 CNS): < 14.7 nM | TGI (SNB-75 CNS): 2800 nM | GI50 (SR leukemia): < 10 nM | GI50 (SW-620 colon): < 10 nM | TGI (SW-620 colon): 21.9 nM | GI50 (T-47D breast): < 10 nM | TGI (T-47D breast): 34.4 nM | GI50 (TK-10 renal): < 11.1 nM | TGI (TK-10 renal): 45.3 nM | GI50 (U251 CNS): < 10.8 nM | TGI (U251 CNS): 33.3 nM | GI50 (UACC-257 melanoma): < 10 nM | TGI (UACC-257 melanoma): 44.7 nM | GI50 (UACC-62 melanoma): < 10 nM | TGI (UACC-62 melanoma): 22.9 nM | GI50 (UO-31 renal): 12.9 nM | TGI (UO-31 renal): 63.7 nM

CC(C)(C#N)c1cc(C(=O)Nc2cc(Nc3ncccc3-c3ncnc4nc[nH]c34)ccc2F)cc(C(F)(F)F)c1
TGI (786-0 renal): > 6730 nM | GI50 (A498 renal): 126 nM | TGI (A498 renal): 844 nM | TGI (A549 NSCLC): > 10000 nM | GI50 (ACHN renal): 1200 nM | TGI (ACHN renal): > 3410 nM | TGI (BT-549 breast): > 2300 nM | GI50 (CAKI-1 renal): 1140 nM | TGI (CAKI-1 renal): > 3550 nM | TGI (CCRF-CEM leukemia): > 10000 nM | GI50 (COLO 205 colon): 131 nM | GI50 (DU-145 prostate): > 2010 nM | TGI (DU-145 prostate): > 10000 nM | TGI (EKVX NSCLC): > 6560 nM | GI50 (HCC-2998 colon): 372 nM | GI50 (HCT-116 colon): 242 nM | TGI (HCT-116 colon): > 2350 nM | TGI (HCT-15 colon): > 2220 nM | GI50 (HL-60(TB) leukemia): 526 nM | TGI (HL-60(TB) leukemia): > 10000 nM | GI50 (HOP-62 NSCLC): 463 nM | TGI (HOP-62 NSCLC): > 10000 nM | GI50 (HOP-92 NSCLC): 255 nM | TGI (HOP-92 NSCLC): 1780 nM | GI50 (HS 578T breast): 919 nM | TGI (HS 578T breast): > 2330 nM | GI50 (HT29 colon): 132 nM | GI50 (IGROV1 ovarian): 521 nM | TGI (IGROV1 ovarian): > 2590 nM | GI50 (K-562 leukemia): 345 nM | TGI (K-562 leukemia): > 10000 nM | GI50 (KM12 colon): 1180 nM | TGI (KM12 colon): > 2090 nM | GI50 (LOX IMVI melanoma): 380 nM | TGI (LOX IMVI melanoma): 2410 nM | GI50 (M14 melanoma): 101 nM | TGI (M14 melanoma): 862 nM | GI50 (MALME-3M melanoma): 64.8 nM | TGI (MALME-3M melanoma): 234 nM | TGI (MCF7 breast): > 4600 nM | GI50 (MDA-MB-231 breast): 270 nM | GI50 (MDA-MB-435): 217 nM | TGI (MDA-MB-435): > 3220 nM | TGI (MOLT-4 leukemia): > 6200 nM | GI50 (NCI-H226 lung): 289 nM | TGI (NCI-H226 lung): > 6400 nM | GI50 (NCI-H23 lung): 514 nM | TGI (NCI-H23 lung): > 4140 nM | GI50 (NCI-H460 lung): 1180 nM | TGI (NCI-H460 lung): > 3270 nM | TGI (NCI-H522 lung): > 6560 nM | GI50 (NCI/ADR-RES ovarian): 1620 nM | TGI (NCI/ADR-RES ovarian): > 10000 nM | TGI (OVCAR-3 ovarian): > 4100 nM | GI50 (OVCAR-4 ovarian): 1300 nM | TGI (OVCAR-4 ovarian): > 2930 nM | GI50 (OVCAR-5 ovarian): 224 nM | TGI (OVCAR-5 ovarian): > 2860 nM | TGI (OVCAR-8 ovarian): > 10000 nM | TGI (PC-3 prostate): > 4270 nM | GI50 (RPMI-8226 leukemia): 4840 nM | TGI (RPMI-8226 leukemia): > 10000 nM | TGI (RXF 393 renal): > 2890 nM | TGI (SF-268 CNS): > 10000 nM | TGI (SF-295 CNS): > 3730 nM | GI50 (SK-MEL-2 melanoma): 315 nM | TGI (SK-MEL-2 melanoma): > 2080 nM | GI50 (SK-MEL-28 melanoma): 107 nM | GI50 (SK-MEL-5 melanoma): 589 nM | TGI (SK-MEL-5 melanoma): > 1980 nM | GI50 (SK-OV-3 ovarian): > 2380 nM | TGI (SK-OV-3 ovarian): > 10000 nM | GI50 (SN12C renal): 1420 nM | TGI (SN12C renal): > 10000 nM | GI50 (SNB-19 CNS): > 2150 nM | TGI (SNB-19 CNS): > 10000 nM | TGI (SNB-75 CNS): > 10000 nM | TGI (SR leukemia): > 10000 nM | GI50 (SW-620 colon): 580 nM | TGI (SW-620 colon): > 10000 nM | TGI (T-47D breast): > 3230 nM | TGI (TK-10 renal): > 4170 nM | TGI (U251 CNS): > 10000 nM | GI50 (UACC-257 melanoma): 112 nM | TGI (UACC-257 melanoma): > 3210 nM | GI50 (UACC-62 melanoma): 87.1 nM | TGI (UACC-62 melanoma): 788 nM | GI50 (UO-31 renal): 189 nM
